Measured values taken from article PMC7532004, “Site-specific effects of neurosteroids on GABAA receptor activation and desensitization” (eLife, 2020).
Like-named read-outs stand apart in the source and are kept apart here.

Key:
[1] = target: T1, α1β3 GABAAR WT (Homo sapiens, UniProt P14867+P28472); assay: [3H]muscimol binding to HEK cell membranes (neurosteroid modulation and isotherms), WT receptor; settings: for Emax (% of control) of [3H]muscimol binding: 100% means no effect; for Bmax of [3H]muscimol binding isotherm in the presence of the modulator: etomidate 100 μM, 3α5αP 30 μM, KK148 30 μM, control 9.8 ± 0.8
T1 construct: inserted between the fourth and fifth residues of the mature peptide; photolabeling full-length heteropentameric GABAARs in native membranes; expressed in transfected cells
T1 sequence (P14867 28-456): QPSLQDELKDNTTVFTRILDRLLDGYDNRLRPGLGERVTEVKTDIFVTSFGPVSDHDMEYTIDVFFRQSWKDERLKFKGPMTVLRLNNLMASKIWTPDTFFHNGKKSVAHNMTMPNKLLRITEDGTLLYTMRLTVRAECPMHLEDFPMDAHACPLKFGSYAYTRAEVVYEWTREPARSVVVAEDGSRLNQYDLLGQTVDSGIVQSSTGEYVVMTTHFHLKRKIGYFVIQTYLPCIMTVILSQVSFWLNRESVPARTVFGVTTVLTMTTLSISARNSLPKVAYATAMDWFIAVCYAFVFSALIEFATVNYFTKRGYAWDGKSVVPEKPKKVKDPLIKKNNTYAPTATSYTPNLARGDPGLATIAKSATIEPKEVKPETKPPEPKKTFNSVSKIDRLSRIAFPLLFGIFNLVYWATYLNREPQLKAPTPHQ
T1 sequence (P28472 26-473): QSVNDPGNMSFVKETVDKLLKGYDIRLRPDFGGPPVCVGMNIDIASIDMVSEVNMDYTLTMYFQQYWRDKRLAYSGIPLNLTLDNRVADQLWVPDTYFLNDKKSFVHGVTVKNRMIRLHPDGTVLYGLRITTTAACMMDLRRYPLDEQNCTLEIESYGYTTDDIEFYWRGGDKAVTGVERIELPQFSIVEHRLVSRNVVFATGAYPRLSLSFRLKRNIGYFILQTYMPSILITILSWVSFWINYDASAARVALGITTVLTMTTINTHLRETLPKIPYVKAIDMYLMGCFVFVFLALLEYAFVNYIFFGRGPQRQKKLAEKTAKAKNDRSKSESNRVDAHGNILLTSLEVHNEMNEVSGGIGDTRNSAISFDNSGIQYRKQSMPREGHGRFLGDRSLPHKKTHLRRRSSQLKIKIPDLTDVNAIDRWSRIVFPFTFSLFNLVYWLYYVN
Protocol: Stably transfected cells were plated into dishes. After reaching 50% confluence, GABAA receptors were expressed by inducing cells with 1 μg/ml of doxycycline with the addition of 5 mM sodium butyrate. Cells were harvested 48 to 72 hr after induction. HEK cells, after induction, were grown to 100% confluence, harvested and washed with 10 mM potassium phosphate, 100 mM potassium chloride (pH 7.5) plus protease inhibitors (Sigma-Aldrich, St. Louis, MO) two times. The cells were collected by centrifugation at 1,000 g at 4°C for 5 min. The cells were homogenized with a glass mortar and a Teflon pestle for ten strokes on ice. The pellet containing the membrane proteins was collected after centrifugation at 20,000 g at 4°C for 45 min and resuspended in a buffer containing 10 mM potassium phosphate, 100 mM potassium chloride (pH 7.5). The protein concentration was determined with micro-BCA protein assay and membranes were stored at −80°C.
(§1) [^3H]muscimol-binding assays were performed using a previously described method ([Chen et al., 2019]). […] Assay tubes were incubated for 1 hr on ice in the dark. […] Membranes were collected on Whatman/GF-C glass filter papers using a Brandel cell harvester (Gaithersburg, MD). To perform [^3H]muscimol binding isotherms, 100 μg/ml aliquots of membrane protein were incubated with 0.3 nM–1 μM [^3H]muscimol for 1 hr on ice in the dark. The specific activity for [^3H]muscimol concentrations from 30 nM to 1 μM was reduced to 2 Ci/mmol by dilution with nonradioactive muscimol. The membranes were collected on Whatman/GF-B glass filter papers using a vacuum manifold. […] For [^3H]muscimol-binding experiments examining competitive interactions between neurosteroids, the combined neurosteroids (0.3 μM 3α5αP or 3 μM KK148 ±30 μM KK150) or the same volume of dimethyl sulfoxide (DMSO) were added to the membranes which were then incubated with 3 nM [^3H]muscimol on ice for 1 hr. Time courses of neurosteroid [^3H]muscimol binding enhancement were examined by adding 10 µM of neurosteroids (3α5αP, 3β5αP) to membranes that had been fully equilibrated with 3 nM [^3H]muscimol for 1 hr on ice; binding was then measured as a function of time at 1, 3, 10, 30, 60 min. The membranes were collected on Whatman/GF-B glass filter papers using a vacuum manifold. Radioactivity bound to the filters was measured by liquid scintillation spectrometry using Bio-Safe II (Research Products International, Mount Prospect, IL).

[2] = target: T2, α1(N408A/Y411F)β3 GABAAR (UniProt P28472+P62813, N434A/Y437F); assay: [3H]muscimol binding to HEK cell membranes, α1 intrasubunit site mutant; parameters: species or system rat α1, human β3; settings: for Emax (% of control) of [3H]muscimol binding: 100% means no effect; for Bmax of [3H]muscimol binding isotherm in the presence of the modulator: etomidate 100 μM, 3α5αP 30 μM, KK148 30 μM, control 0.90 ± 0.18
T2 construct: expressed in transfected cells; host or cells: HEK293S GnTI- (ATCC CRL-3022), transient
Protocol: The human α1 and β3 GABAAR subunits were subcloned into pcDNA3 for molecular manipulations and cRNA synthesis. Using QuikChange Site-Directed Mutagenesis Kit (Agilent Technologies, Santa Clara, CA), a FLAG tag was first added to the α1 subunit then an 8xHis tag was added to generate the following His-FLAG tag tandem ([…]), inserted between the fourth and fifth residues of the mature peptide. The α1 and β3 subunits were then transferred into the pcDNA4/TO and pcDNA5/TO vectors (Thermo Fisher Scientific), respectively, for tetracycline inducible expression. Transient expression was done using the GABAAR subunits rat α1FLAG ([Ueno et al., 1996]) and human β3 obtained from Geoffrey White (Neurogen, Branford, CT), each were subcloned into pcDNA3 for molecular manipulations and cRNA synthesis. Point mutations were generated using the QuikChange Site-Directed Mutagenesis Kit (Agilent) and the coding region was fully sequenced prior to use. The cDNAs were linearized with XbaI (NEB Labs, Ipswich, MA), and the cRNAs were generated using T7 mMessage mMachine (Ambion, Austin, TX).
as §1

[3] = α1(N408A/Y411F)β3, 3 nM [3H]muscimol
[4] = WT α1β3, 3 nM [3H]muscimol, 1 hr on ice, read-out: EC50 for modulation of [3H]muscimol binding

T2 sequence (P62813 28-455 N434A/Y437F, one chain of several): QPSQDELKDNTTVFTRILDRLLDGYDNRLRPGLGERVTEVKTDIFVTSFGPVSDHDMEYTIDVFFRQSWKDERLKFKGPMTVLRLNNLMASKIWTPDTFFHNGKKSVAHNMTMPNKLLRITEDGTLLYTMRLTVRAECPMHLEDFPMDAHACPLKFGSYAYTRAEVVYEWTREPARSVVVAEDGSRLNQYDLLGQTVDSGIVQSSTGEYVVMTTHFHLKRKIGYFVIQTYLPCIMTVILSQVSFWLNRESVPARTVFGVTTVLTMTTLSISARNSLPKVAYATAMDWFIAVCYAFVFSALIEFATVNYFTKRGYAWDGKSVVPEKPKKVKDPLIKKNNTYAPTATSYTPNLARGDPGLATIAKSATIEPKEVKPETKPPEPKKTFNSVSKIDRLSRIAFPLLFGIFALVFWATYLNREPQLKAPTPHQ

SMILES | EC50 [1] | Hill slope for modulation of [3H]muscimol binding ([1]; WT α1β3, 3 nM [3H]muscimol) | Emax (% of control) of [3H]muscimol binding ([1]; WT α1β3, 3 nM [3H]muscimol) | Bmax of [3H]muscimol binding isotherm in the presence of the modulator ([1]; WT α1β3) | EC50 [2] | Hill slope for modulation of [3H]muscimol binding [2, 3] | Emax (% of control) of [3H]muscimol binding [2, 3] | Bmax of [3H]muscimol binding isotherm in the presence of the modulator ([2]; α1(N408A/Y411F)β3) | Decrease of enhancement of [3H]muscimol binding by mutation ([2]; α1 intrasubunit site mutation vs WT) | Time constant (τ) of enhancement of [3H]muscimol binding ([1]; 10 µM neurosteroid added to membranes equilibrated with 3 nM [3H]muscimol, 4°C) | EC50 [1, 4] | EC50 ([2]; α1(N408A/Y411F)β3, 3 nM [3H]muscimol, read-out: EC50 for modulation of [3H]muscimol binding) | Effect on enhancement of [3H]muscimol binding by 3α5αP and KK148 ([1]; 30 μM KK150 with 0.3 μM 3α5αP or 3 μM KK148, 3 nM [3H]muscimol) | Bmax of [3H]muscimol binding isotherm ([1]; WT α1β3) | Kd ([1]; WT α1β3, 0.3 nM–1 μM [3H]muscimol, read-out: Kd of [3H]muscimol binding isotherm) | Bmax of [3H]muscimol binding isotherm ([2]; α1(N408A/Y411F)β3) | Kd ([2]; α1(N408A/Y411F)β3, read-out: Kd of [3H]muscimol binding isotherm)
CC(=O)[C@H]1CC[C@H]2[C@@H]3CC[C@H]4C[C@H](O)CC[C@]4(C)[C@H]3CC[C@]12C [3α5αP, allopregnanolone] | 240 ± 40 nM | 1.10 ± 0.14 | 374.1 ± 11.1 % of control | 10.3 ± 0.7 pmol/mg | 2300 nM | 0.87 ± 0.44 | **146.0 ± 9.3 % of control | 0.93 ± 0.16 pmol/mg | ~ 80% |  |  |  |  |  |  |  | 
CC(=O)[C@H]1CC[C@H]2[C@@H]3CC[C@H]4C[C@@H](O)CC[C@]4(C)[C@H]3CC[C@]12C [3β5αP, epi-allopregnanolone] | 260 ± 70 nM | 0.89 ± 0.26 | 195.6 ± 5.7 % of control |  | 610 ± 260 nM | 2.25 ± 0.92 | **124.3 ± 2.6 % of control |  |  | 3.97 ± 0.15 min |  |  |  |  |  |  | 
C#CCCO[C@H]1CC[C@H]2[C@@H]3CC[C@H]4CC5(CC[C@]4(C)[C@H]3CC[C@]12C)N=N5 [KK148] |  | 1.36 ± 0.16 | 431.0 ± 19.5 % of control | 10.8 ± 0.9 pmol/mg |  | 0.73 ± 0.23 | **161.7 ± 3.5 % of control | 0.85 ± 0.22 pmol/mg |  |  | 2400 ± 360 nM | 1630 ± 530 nM |  |  |  |  | 
C#CCCO[C@@H]1CC[C@H]2[C@@H]3CC[C@H]4CC5(CC[C@]4(C)[C@H]3CC[C@]12C)N=N5 [KK150] |  | 1.12 ± 0.42 | 142.5 ± 3.9 % of control |  |  |  |  |  |  |  | 2760 ± 2320 nM |  | inhibited |  |  |  | 
NCc1cc(=O)[nH]o1 [muscimol] |  |  |  |  |  |  |  |  |  |  |  |  |  | 12.1 ± 1.4 pmol/mg | 48.1 ± 4 nM | 0.9 ± 0.1 (*P < 0.01 vs. WT) pmol/mg | 60.7 ± 7.5 nM
